Structures are written as SMILES. Read-outs that look alike come from different tables or passages of the source.

The values that follow come from patent US20080009802A1, “Method of treating acne with stratum corneum piercing device” (priority 2005, published 2008).

This data set deals with skin site on subject's forearm or face. The following applies: for ENHANCED ACTIVE DELIVERY (HISTAMINE RESPONSE): about 10 microliters 0.10% wt/wt histamine, visual inspection after 10 minutes. As to the method: The microprotrusion disk of Example 1 was affixed on the desired skin site on subject's forearm or face. The implement of Example 3 was used to push the microprotrusion disk through stratum corneum with predetermined impact pressure modified by the choice of spring. The impact pressure was measured using a digital force meter (Model DFM 10, Chatillon, Greensboro, N.C.). The contact area between the implement device and skin was determined to be about 1.2 cm in diameter. The pressure per unit area was calculated from the ratio of pressure/contact area. The disk was removed immediately after the application. Both subject sensation (e.g., pain and sting) and erythema of the testing site were recorded immediately after the application, and is reported in Table 1.
The reaction of the subject's skin to histamine (e.g., erythema) was recorded after 10 minutes following histamine application to the treatment site by visual inspection. Additional inspection followed if a reaction was detected at 10 minutes. Controls were run by applying histamine solution to untreated skin sites (e.g., sites not pierced by the microprotrusion members). All test sites were graded visually for the evidence of post-inflammatory hyperpigmentation (PIH) for up to at least 3 weeks.

`NCCc1c[nH]cn1` [histamine]: the “skin's reaction to topically applied histamine” value runs as follows: (control test sites: untreated skin, not pierced by the microprotrusion members) “did not result in erythema”; (following microprotrusion treatment) “manifested in erythema”. Moreover, the “ENHANCED ACTIVE DELIVERY (HISTAMINE RESPONSE)” value is listed as “Yes,” (subject 1/Forearm, microprotrusion length 225 micrometer, 8 lbs/cm^2); “Yes,” (subject 2/Forearm, microprotrusion length 225 micrometer, 6 lbs/cm^2); “Yes, but not” (subject 3/Cheek (bone), microprotrusion length 185 micrometer, 3.2 lbs/cm^2); “Yes,” (subject 4/Forearm, microprotrusion length 185 micrometer, 4.6 lbs/cm^2); “Yes,” (subject 5/Forearm, microprotrusion length 185 micrometer, 8 lbs/cm^2); “Yes,” (subject 6/Forehead, microprotrusion length 145 micrometer, 5 lbs/cm^2).
